In PubChem BioAssay AID318 (DTP/NCI, 2004) one finds T/C data, which are given here for 22 compounds.

“And” between values parts separate entries of the source, which are not always exact repeats. Identical values can stand only once. Toxic doses and inconclusive results are not listed.

The subject of this experiment is BDF1 mice, P815 leukemia ip, survival T/C. In words: NCI In Vivo Anticancer Drug Screen. Data for tumor model P815 Mast Cell Leukemia (Ascitic) (intraperitoneal) in B6D2F1 (BDF1) mice. The conditions noted are these: higher = longer survival. As for the experimental part:
The antitumor activity of compounds was measured in mice bearing transplantable tumors. Survival or tumor size were measured and the results are expressed as the measurement made in the treated group (T) divided by the measurement made in the vehicle treated control group (C). The tumor model used in this assay is P815 Mast Cell Leukemia (Ascitic) (intraperitoneal) in B6D2F1 (BDF1) mice

The mark [1] stands for this setting: endpoint: survival time, mean or median, dose: 50.0 mg/kg/injection, schedule: Q01DX010 (ip), vehicle: saline.
Setting [2] is: endpoint: survival time, mean or median, dose: 100.0 mg/kg/injection, schedule: Q01DX010 (ip), vehicle: saline.
[3] abbreviates: endpoint: survival time, mean or median, dose: 200.0 mg/kg/injection, schedule: Q01DX010 (ip), vehicle: saline.
Setting [4] is: endpoint: survival time, mean or median, dose: 1.0 mg/kg/injection, schedule: Q01DX010 (ip), vehicle: saline.
[5] abbreviates: endpoint: survival time, mean or median, dose: 2.0 mg/kg/injection, schedule: Q01DX010 (ip), vehicle: saline.
Setting [6] is: endpoint: survival time, mean or median, dose: 4.0 mg/kg/injection, schedule: Q01DX010 (ip), vehicle: saline.
The mark [7] stands for this setting: endpoint: survival time, mean or median, dose: 5.0 mg/kg/injection, schedule: Q01DX010 (ip), vehicle: saline.
Where [8] appears, read: endpoint: survival time, mean or median, dose: 10.0 mg/kg/injection, schedule: Q01DX010 (ip), vehicle: saline.
Setting [9] is: endpoint: survival time, mean or median, dose: 20.0 mg/kg/injection, schedule: Q01DX010 (ip), vehicle: saline.
The mark [10] stands for this setting: endpoint: survival time, mean or median, dose: 40.0 mg/kg/injection, schedule: Q01DX010 (ip), vehicle: saline.
Where [11] appears, read: endpoint: survival time, mean or median, dose: 8.0 mg/kg/injection, schedule: Q01DX010 (ip), vehicle: saline.
Setting [12] is: endpoint: survival time, mean or median, dose: 62.5 mg/kg/injection, schedule: Q01DX015 (ip), vehicle: carboxymethylcellulose (CMC).
The mark [13] stands for this setting: endpoint: survival time, mean or median, dose: 15.0 mg/kg/injection, schedule: Q01DX010 (ip), vehicle: saline.
The mark [14] stands for this setting: endpoint: survival time, mean or median, dose: 30.0 mg/kg/injection, schedule: Q01DX010 (ip), vehicle: saline.
Setting [15] is: endpoint: survival time, mean or median, dose: 60.0 mg/kg/injection, schedule: Q01DX010 (ip), vehicle: saline.
Setting [16] is: endpoint: survival time, mean or median, dose: 250.0 mg/kg/injection, schedule: Q01DX010 (ip), vehicle: saline.

As for `O=C(Nc1ccc(C2=NCCN2)cc1)c1ccc(C(=O)Nc2ccc(C3=NCCN3)cc2)c(NC(=O)c2ccc(C(=O)Nc3cc(C(=O)Nc4ccc(C5=NCCN5)cc4)ccc3C(=O)Nc3ccc(C4=NCCN4)cc3)cc2)c1`, the T/C (endpoint: survival time, mean or median, dose: 25.0 mg/kg/injection, schedule: Q01DX010 (ip), vehicle: saline) is 95 % of control; the T/C under setting [1] was 108 % of control; the T/C under setting [2] was 95 % of control; the T/C under setting [3] is 104 % of control.

With `CS(=O)(=O)OCCN(CCOS(C)(=O)=O)c1ccc(N=O)cc1`, the T/C runs as follows: under setting [4], 161 % of control; under setting [5], 115 % of control; under setting [6], 100 % of control.

On to `CCCCNc1ncnc2c1cnn2C`, for which the T/C is 95 % of control and 100 % of control (endpoint: survival time, mean or median, dose: 31.25 mg/kg/injection, schedule: Q01DX010 (ip), vehicle: saline); 108 % of control (endpoint: survival time, mean or median, dose: 62.5 mg/kg/injection, schedule: Q01DX010 (ip), vehicle: saline).

Take `CCOC(=O)c1c[nH]c2ccc(N(CCCl)CCCl)cc12`: the T/C under setting [7] is 100 % of control; the T/C under setting [8] was 100 % of control; the T/C under setting [9] is 100 % of control; the T/C under setting [10] was 105 % of control; the T/C (endpoint: survival time, mean or median, dose: 80.0 mg/kg/injection, schedule: Q01DX010 (ip), vehicle: saline) was 112 % of control.

`NOCc1ccsn1`: the T/C is, setting by setting: (endpoint: median survival time, dose: 15.0 mg/kg/injection, schedule: Q01DX010 (ip), vehicle: saline sonified) 100 % of control; (endpoint: median survival time, dose: 30.0 mg/kg/injection, schedule: Q01DX010 (ip), vehicle: saline sonified) 100 % of control; (endpoint: median survival time, dose: 60.0 mg/kg/injection, schedule: Q01DX010 (ip), vehicle: saline sonified) 93 % of control.

With `Cc1cc2nc3c(=O)[nH]c(=O)nc-3n(CC(O)C(O)C(O)C(O)CO)c2cc1C` (stereo not given), the T/C by setting is: under setting [1], 100 % of control; under setting [2], 100 % of control; under setting [3], 88 % of control and 100 % of control; (endpoint: survival time, mean or median, dose: 400.0 mg/kg/injection, schedule: Q01DX010 (ip), vehicle: saline) 88 % of control.

For the compound `O=C(Nc1cccc(C(=O)Nc2ccc(C3=NCCN3)cc2)c1)c1ccc(C2=NCCN2)cc1`, the T/C (endpoint: survival time, mean or median, dose: 54.0 mg/kg/injection, schedule: Q01DX010 (ip), vehicle: saline) was 112 % of control.

Take `CCCNC(=NC)c1ccc(NC(=O)c2ccc(C(=O)Nc3ccc(C(=NC)NCCC)cc3)cc2)cc1`: the T/C reads like this: (endpoint: survival time, mean or median, dose: 5.2 mg/kg/injection, schedule: Q01DX010 (ip), vehicle: saline) 121 % of control; under setting [11], 121 % of control; (endpoint: survival time, mean or median, dose: 12.0 mg/kg/injection, schedule: Q01DX010 (ip), vehicle: saline) 121 % of control; (endpoint: survival time, mean or median, dose: 18.0 mg/kg/injection, schedule: Q01DX010 (ip), vehicle: saline) 100 % of control.

On to `COc1ccc2c(c1OC)C(=O)O[C@@H]2[C@H]1c2c(cc3c(c2OC)OCO3)CCN1C`, for which the T/C runs as follows: under setting [12], 101 % of control; (endpoint: survival time, mean or median, dose: 125.0 mg/kg/injection, schedule: Q01DX015 (ip), vehicle: carboxymethylcellulose (CMC)) 95 % of control; (endpoint: survival time, mean or median, dose: 250.0 mg/kg/injection, schedule: Q01DX015 (ip), vehicle: carboxymethylcellulose (CMC)) 96 % of control; (endpoint: survival time, mean or median, dose: 500.0 mg/kg/injection, schedule: Q01DX015 (ip), vehicle: carboxymethylcellulose (CMC)) 93 % of control.

As for `Clc1ncnc2nc[nH]c12`, the T/C is 100 % of control (endpoint: survival time, mean or median, dose: 7.5 mg/kg/injection, schedule: Q01DX010 (ip), vehicle: saline); 100 % of control (endpoint: survival time, mean or median, dose: 9.5 mg/kg/injection, schedule: Q01DX010 (ip), vehicle: saline); 100 % of control under setting [13]; 100 % of control under setting [14]; 104 % of control and 109 % of control under setting [15].

Turning to `C[C@H](N)C(=O)N[C@@H]1[C@H]2C(=C(O)C[C@@H](O)[C@@H]2O)C(=O)O[C@@H]1C`, the T/C is 122 % of control (endpoint: survival time, mean or median, dose: 150.0 mg/kg/injection, schedule: Q01DX010 (ip), vehicle: saline) and 183 % of control (endpoint: survival time, mean or median, dose: 1200.0 mg/kg/injection, schedule: Q01DX010 (ip), vehicle: saline).

As to `O=C(Nc1ccc(NC(=O)Nc2ccc(C3=NCCN3)cc2)cc1)Nc1ccc(C2=NCCN2)cc1`, the T/C (endpoint: survival time, mean or median, dose: 110.0 mg/kg/injection, schedule: Q01DX010 (ip), vehicle: saline) was 113 % of control; the T/C (endpoint: survival time, mean or median, dose: 165.0 mg/kg/injection, schedule: Q01DX010 (ip), vehicle: saline) was 113 % of control; the T/C under setting [16] is 100 % of control; the T/C (endpoint: survival time, mean or median, dose: 375.0 mg/kg/injection, schedule: Q01DX010 (ip), vehicle: saline) was 104 % of control.

For the compound `COc1ccc(CSc2ncnc3nc[nH]c23)cc1`, the T/C under setting [12] was 91 % of control.

As for `CN(C)CC(=O)c1ccc(O)c(O)c1`, the T/C under setting [3] was 120 % of control; the T/C (endpoint: survival time, mean or median, dose: 300.0 mg/kg/injection, schedule: Q01DX010 (ip), vehicle: saline) was 100 % of control; the T/C (endpoint: survival time, mean or median, dose: 450.0 mg/kg/injection, schedule: Q01DX010 (ip), vehicle: saline) was 95 % of control.

For `Nc1nc(F)nc2c1ncn2C1OC(CO)C(O)C1O` (stereo not given), the T/C (endpoint: survival time, mean or median, dose: 0.5 mg/kg/injection, schedule: Q01DX010 (ip), vehicle: saline) was 100 % of control; the T/C (endpoint: survival time, mean or median, dose: 0.75 mg/kg/injection, schedule: Q01DX015 (ip), vehicle: saline) is 99 % of control; the T/C under setting [4] is 100 % of control and 112 % of control; the T/C (endpoint: survival time, mean or median, dose: 1.5 mg/kg/injection, schedule: Q01DX015 (ip), vehicle: saline) is 98 % of control; the T/C under setting [5] is 100 % of control and 112 % of control; the T/C under setting [6] was 100 % of control and 112 % of control. The T/C under setting [11] was 88 % of control.

On to `C[N+](C)(C)c1ncnc2nc[nH]c12`, for which the T/C is 100 % of control under setting [13], 94 % of control under setting [14] and 88 % of control under setting [15].

As to `CN(C)[C@@H]1C(=O)C(C(N)=O)=C(O)[C@@]2(O)C(=O)C3=C(O)c4c(O)cccc4C[C@H]3C[C@@H]12`, the T/C (endpoint: survival time, mean or median, dose: 30.0 mg/kg/injection, schedule: Q01DX015 (ip), vehicle: alkali diluted with saline) was 117 % of control.

On to `O=C(Nc1ccc(C2=NCCN2)cc1)c1ccc(C(=O)Nc2ccc(C3=NCCN3)cc2)cc1`, for which the T/C reads like this: (endpoint: survival time, mean or median, dose: 75.0 mg/kg/injection, schedule: Q01DX010 (ip), vehicle: saline) 158 % of control; (endpoint: survival time, mean or median, dose: 112.0 mg/kg/injection, schedule: Q01DX010 (ip), vehicle: saline) 175 % of control; (endpoint: survival time, mean or median, dose: 167.0 mg/kg/injection, schedule: Q01DX010 (ip), vehicle: saline) 175 % of control; under setting [16], 108 % of control.

In the case of `Cc1cc(N(CCCl)CCCl)ccc1N=Nc1ccccc1C(=O)O`, the T/C under setting [7] is 105 % of control and 111 % of control; the T/C under setting [8] is 105 % of control and 111 % of control; the T/C under setting [9] was 111 % of control; the T/C under setting [10] is 88 % of control.

For `CNc1nc(Nc2ccc(C3=NCCN3)cc2)nc(Nc2ccc(C3=NCCN3)cc2)n1`, the T/C (endpoint: survival time, mean or median, dose: 13.3 mg/kg/injection, schedule: Q01DX010 (ip), vehicle: saline) is 108 % of control; the T/C under setting [9] is 108 % of control; the T/C under setting [14] was 108 % of control; the T/C (endpoint: survival time, mean or median, dose: 45.0 mg/kg/injection, schedule: Q01DX010 (ip), vehicle: saline) is 116 % of control.

In the case of `CN(C)c1ccc(/C=C/c2ccnc3ccccc23)cc1`, the T/C runs as follows: under setting [7], 100 % of control; under setting [8], 88 % of control and 94 % of control; under setting [9], 88 % of control and 100 % of control; under setting [10], 100 % of control.

With `COc1ccc(C[n+]2cc([O-])on2)cc1`, the T/C is, setting by setting: (endpoint: survival time, mean or median, dose: 12.5 mg/kg/injection, schedule: Q01DX015 (ip), vehicle: carboxymethylcellulose (CMC)) 111 % of control; (endpoint: survival time, mean or median, dose: 25.0 mg/kg/injection, schedule: Q01DX015 (ip), vehicle: carboxymethylcellulose (CMC)) 114 % of control; (endpoint: survival time, mean or median, dose: 100.0 mg/kg/injection, schedule: Q01DX015 (ip), vehicle: carboxymethylcellulose (CMC)) 107 % of control.
